Reference: patent US20210277441A1, “METHOD OF SELECTING A POLYPEPTIDE OF INTEREST” (IMPERIAL COLLEGE INNOVATIONS LIMITED, priority 2018, published 2021)

What was measured:
[1] = molecular target: Myxococcus stipitatus imine reductase (MsIRED) variant MsIRED-c (best previously described NADH-dependent variant, 5 residue substitutions) (Myxococcus stipitatus, UniProt L7U9F5); assay: Kinetics of MsIRED-c (best previously described NADH-dependent variant), 2-methylpyrroline reduction with NADH; format: biochemical; details: cofactor NADH (0.25 mM); enzyme 1.2675 uM
[2] = molecular target: Enterobacter cloacae nitroreductase (EntNFSB) variant EntNFSB-s1, S40A/T41I/F124A, SEQ ID NO: 38 (Enterobacter cloacae, UniProt Q01234, F124A/S40A/T41I); assay: Kinetics of evolved EntNFSB-s1, 2-nitrobenzoic acid reduction with NADH; details: cofactor NADH; enzyme 1 uM
Chain of Enterobacter cloacae nitroreductase (EntNFSB) variant EntNFSB-s1, S40A/T41I/F124A, SEQ ID NO: 38 (Q01234 whole entry S40A/T41I/F124A): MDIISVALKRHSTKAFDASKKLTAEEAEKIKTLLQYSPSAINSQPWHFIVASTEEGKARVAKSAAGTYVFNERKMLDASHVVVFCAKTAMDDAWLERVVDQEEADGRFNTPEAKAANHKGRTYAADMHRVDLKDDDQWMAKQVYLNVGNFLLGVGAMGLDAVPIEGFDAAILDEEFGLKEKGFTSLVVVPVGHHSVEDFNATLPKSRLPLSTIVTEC

[3] = molecular target: Enterobacter cloacae nitroreductase (EntNFSB) variant EntNFSB-s2, T41L/Y68L/F124L, SEQ ID NO: 40 (Enterobacter cloacae, UniProt Q01234, F124L/T41L/Y68L); format: biochemical; details: cofactor NADH; enzyme 1 uM
Chain of Enterobacter cloacae nitroreductase (EntNFSB) variant EntNFSB-s2, T41L/Y68L/F124L, SEQ ID NO: 40 (Q01234 whole entry T41L/Y68L/F124L): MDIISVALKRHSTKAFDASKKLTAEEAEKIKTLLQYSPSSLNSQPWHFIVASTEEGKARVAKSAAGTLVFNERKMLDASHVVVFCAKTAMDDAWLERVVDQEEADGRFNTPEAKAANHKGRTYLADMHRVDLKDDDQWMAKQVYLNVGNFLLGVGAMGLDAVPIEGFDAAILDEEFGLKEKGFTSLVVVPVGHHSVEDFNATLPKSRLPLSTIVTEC

AL cells = assay: 1H NMR analysis of fermentation broth of anaerobic cultures; format: cell-based, Escherichia coli; details: no exogenous substrate
[4] = test system: LS1 strain (ΔadhE ΔldhA double mutant) cells; assay: Metabolic complementation (anaerobic growth recovery) of LS1/AL strain; format: cell-based, Escherichia coli; details: LS1, no exogenous substrate
Method: (§1) The LS1 mutant strain and the parental BW25113 strain were transformed with the desired plasmid and overnight pre-cultures were grown aerobically in 15 mL Falcon tubes with M9 media (0.4% glucose). These pre-cultures were used to inoculate 10 mL Hungate tubes with M9 medium (0.4% glucose) supplemented with 100 μg/mL ampicillin, 1 mM IPTG and with or without the specific substrate of the dehydrogenase under anaerobic conditions at 37° C. Metabolic complementation was assessed by measuring the optical density at 600 nm every two hours during daytime.

LS5 strain = assay: Metabolic complementation (anaerobic growth) of quadruple mutant; format: cell-based, Escherichia coli
Method: as §1
Since in the triple mutants the non-deleted transhydrogenase could still be supporting anaerobic growth under anaerobic fermentation conditions when complemented with an NADPH-dependent oxidoreductase by generating oxidized NAD, the inventors generated a quadruple mutant where adhE, ldhA, sthA and pntA genes were deleted (LS5 strain, FIG. 11).

CC1=NCCC1 [2-methylpyrroline, 2-methyl-1-pyrroline]
Km [1]: 41.8 mM | kcat [1]: 1.993 s⁻¹

O=C(O)c1ccccc1[N+](=O)[O-] [2-nitrobenzoic acid]
kcat [2]: 0.0195 s⁻¹

O=[N+]([O-])c1ccc(CO)cc1 [4-nitrobenzyl alcohol]
Km [3]: 1.11 mM | kcat [3]: 0.0725 s⁻¹

pLS1: pUC19 with ADH NADH-dependent from Escherichia coli (adhE)
Acetate concentration (AL cells): 12.1 | Ethanol concentration (AL cells): 13.8 | Formate concentration (AL cells): 20.7 | Lactate concentration (AL cells): 0 | Succinate concentration (AL cells): 5.2 | anaerobic growth recovery [4]: restoration of ability to grow anaerobically | anaerobic growth (LS5 strain): anaerobic growth is restored
